Measured values published in US20110275711A1, “METHOD FOR TREATING MACULAR EDEMA” (R-TECH UENO, LTD., priority 2010, published 2011).

Columns and labels:
[1] = test system: rhVEGF induced retinal vascular leakage; assay: Inhibition of rhVEGF induced retinal vascular leakage in rabbit model (vitreous fluorescein leakage); assay type: in vivo, GD79B rabbit (pigmented); details: 50 μl test composition intravitreal just after rhVEGF 500 ng; for Fluorescein Leakage (AUC) right eye (treated), Mean: measured 48 h after rhVEGF, 1 h after sodium fluorescein i.v., n=8; for Inhibition of fluorescein leakage (vs. control): AUC ratio compared with vehicle control group; for ratio of AUC right/left, Mean ± S.D.: treated eye/untreated eye
Excerpt: The effect of the fatty acid derivative to inhibit retinal vascular leakage in rabbit model.
Animals: GD79B rabbit (pigmented). Each group contains 8 animals.
1) 0.15 w/v % isopropyl unoprostone: formulation example 1 2) 4 w/v % triamcinolone acetonide: Kenacort® Retard (Bristol-Myers Squibb Japan, Tokyo, JP) (positive control) 3) vehicle of isopropyl unoprostone (composition comprising the ingredients of formulation example 1 except for isopropyl unoprostone) (control)
Retinal vascular leakage model animals were prepared. Recombinant human vascular endothelial cell growth factor (rhVEGF) 500 ng (in 50 μl) was injected intravitreally in the right eye of animals. Just after the injection of rhVEGE, 50 μl of test composition 1 or 2 was injected intraviterally in the right eye of the animal. The left eyes were remain untreated (no rhVEGE nor test compositions).
Forty seven (47) hours after the rhVEGF injection, 50 mg/kg of sodium fluorescein (10 w/v % in physiological saline) was injected to the animals via auricular veins. One (1) hour after the injection of sodium fluorescein, the fluorescence intensities in the vitreous body of the treated and untreated eyes were measured by using a corneal spectrophotometer. Based on the measured value, area under the curve (AUC) of the fluorescence intensity that reflects the leakage and the ratio of AUC (treated eye/untreated eye, i.e. right eye/left eye) were calculated. The AUC ratio of isopropyl unoprostone and triamcinolone acetonide administered group were compared to the AUC ratio of the control group to give the inhibition (%) of retinal vascular leakage.

[2] = test system: macular edema; details: package insert of Xalatan; cited from earlier work

Row | Compound | Fluorescein Leakage (AUC) right eye (treated), Mean [1] | Inhibition of fluorescein leakage (vs. control) [1] [%] | ratio of AUC right/left, Mean ± S.D. [1] | macular edema as side effect [2]
1 | CC1(C)O[C@@H]2C[C@H]3[C@@H]4CCC5=CC(=O)C=C[C@]5(C)[C@@]4(F)[C@@H](O)C[C@]3(C)[C@]2(C(=O)CO)O1 [triamcinolone acetonide] | 3715.6 | 89 | 0.98 ± 0.44 | 
2 | CCCCCCCC(=O)CC[C@@H]1[C@@H](C/C=C\CCCC(=O)OC(C)C)[C@@H](O)C[C@H]1O [isopropyl unoprostone, (+)-isopropyl (Z)-7-[(1R,2R,3R,5S)-3,5-dihydroxy-2-(3-oxodecyl)cyclopentyl]hept-5-enoate] | 10998.4 | 60 | 3.43 ± 4.01 | 
3 | CC(C)OC(=O)CCC/C=C\C[C@@H]1[C@@H](CC[C@@H](O)CCc2ccccc2)[C@H](O)C[C@@H]1O [latanoprost, (+)-Isopropyl (Z)-7-[(1R,2R,3R,5S)-3,5-dihydroxy-2-[(3R)-3-hydroxy-5-phenylpentyl]cyclopentyl]-5-heptenoate] |  |  |  | causes macular edema as a side effect
